The text below walks through data of patent US20220184222A1, “BICYCLE TOXIN CONJUGATES AND USES THEREOF” (BicycleTx Limited, priority 2019, published 2022).

Where “and” joins values, the source holds several entries; their conditions need not be identical. Equal entries are not always repeated.

The test system of this series is PC-3 xenograft. The experiment in a line: In vivo efficacy in PC-3 xenograft, male Balb/c nude mice (Example 3). Also on record: species or system Mus Musculus. Here is the method: The objective of the research is to evaluate the in vivo anti-tumor efficacy of test articles in treatment of PC-3 xenograft in Balb/c nude mice.
The tumor cells were maintained in F-12K medium supplemented with 10% heat inactivated fetal bovine serum at 37° C. in an atmosphere of 5% CO2 in air. The tumor cells were routinely subcultured twice weekly. The cells growing in an exponential growth phase were harvested and counted for tumor inoculation.
Each mouse was inoculated subcutaneously at the right flank with PC-3 tumor cells (10×10^6) in 0.2 ml of PBS for tumor development. 52 animals were randomized when the average tumor volume reached 454 mm^3. The test article administration and the animal numbers in each group were shown in the experimental design table.
The major endpoint was to see if the tumor growth could be delayed or mice could be cured. Tumor volume was measured three times weekly in two dimensions using a caliper, and the volume was expressed in mm3 using the formula: V=0.5 a×b^2 where a and b are the long and short diameters of the tumor, respectively. The tumor size was then used for calculations of T/C value. The T/C value (in percent) is an indication of antitumor effectiveness; T and C are the mean volumes of the treated and control groups, respectively, on a given day.
TGI was calculated for each group using the formula: TGI (%)=[1−(Ti−T0)/(Vi−V0)]×100; Ti is the average tumor volume of a treatment group on a given day, T0 is the average tumor volume of the treatment group on the day of treatment start, Vi is the average tumor volume of the vehicle control group on the same day with Ti, and V0 is the average tumor volume of the vehicle group on the day of treatment start.
Tumor growth inhibition rate for test articles in the PC-3 xenograft model was calculated based on tumor volume measurements at day 20 after the start of the treatment.

[1] abbreviates: 15 mpk i.v. qw (treatment suspended after the first dosing), day 20.

A word on the T/C: it is the ratio of treated to control. With `CC(=O)O[C@@]12CO[C@@H]1C[C@H](O)[C@@]1(C)C(=O)[C@H](O)C3=C(C)[C@@H](OC(=O)[C@H](O)[C@@H](NC(=O)OC(C)(C)C)c4ccccc4)C[C@@](O)([C@@H](OC(=O)c4ccccc4)[C@H]21)C3(C)C` [Docetaxel, reference compound], the “tumor relapse after ceasing the treatment” value (15 mg/kg qw) is “obvious tumor relapse”. In addition, the “animal body weight loss” value (15 mg/kg qw, after the first dosing) is listed as “severe animal body weight loss”. Also, the Tumor volume is, setting by setting: (15 mpk i.v. qw (treatment suspended after the first dosing), day 0) 453 mm^3; (15 mpk i.v. qw (treatment suspended after the first dosing), day 2) 584 mm^3; (15 mpk i.v. qw (treatment suspended after the first dosing), day 4) 632 mm^3; (15 mpk i.v. qw (treatment suspended after the first dosing), day 6) 636 mm^3; (15 mpk i.v. qw (treatment suspended after the first dosing), day 8) 568 mm^3; (15 mpk i.v. qw (treatment suspended after the first dosing), day 10) 408 mm^3. Moreover, the Tumor volume is, setting by setting: (15 mpk i.v. qw (treatment suspended after the first dosing), day 13) 374 mm^3; (15 mpk i.v. qw (treatment suspended after the first dosing), day 15) 388 mm^3; (15 mpk i.v. qw (treatment suspended after the first dosing), day 17) 361 mm^3; under setting [1], 419 mm^3 and 419 ± 31 mm^3. Further, the T/C under setting [1] was 17.7%. For the same compound, the TGI under setting [1] was 101.8%.
